Data as given in US20250122160A1, “PROTEIN TYROSINE PHOSPHATASE INHIBITORS AND METHODS OF USE THEREOF” (Calico Life Sciences LLC, priority 0001, published 2025).

Legend:
[1] = target: T1, His tagged PTPN2 (TC45) protein (Homo sapiens, UniProt P17706); assay: Mobility shift assay (MSA) to determine potency of PTPN2 inhibitors; type: biochemical; conditions: 0.5 nM enzyme, 2 μM substrate
T1 construct: made in house
T1 sequence (P17706 with tags, fused parts or gaps isoform P17706-2): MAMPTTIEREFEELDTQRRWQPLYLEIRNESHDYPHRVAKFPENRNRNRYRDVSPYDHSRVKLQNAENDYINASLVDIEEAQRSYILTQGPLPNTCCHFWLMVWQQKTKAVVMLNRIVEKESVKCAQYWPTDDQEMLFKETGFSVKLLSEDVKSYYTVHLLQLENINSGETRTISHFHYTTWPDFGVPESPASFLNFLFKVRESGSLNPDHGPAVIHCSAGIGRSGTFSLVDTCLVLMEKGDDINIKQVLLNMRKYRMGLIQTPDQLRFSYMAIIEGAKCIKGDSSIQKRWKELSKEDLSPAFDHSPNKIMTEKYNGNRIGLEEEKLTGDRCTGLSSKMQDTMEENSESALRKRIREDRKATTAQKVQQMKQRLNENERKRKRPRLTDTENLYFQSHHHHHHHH
Experimental: Compound activity was determined using in house His tagged PTPN2 (TC45) protein (SEQ ID NO: 1) in an in vitro enzymatic reaction. The enzymatic assay used to determine activity was a mobility shift assay using a LabChip EZ Reader by Caliper Life Sciences. The enzymatic reaction was carried out in assay buffer (50 mM HEPES pH 7.5, 1 mM EGTA, 10 mM EDTA, 0.01% Tween® 20, and 2 mM DTT). The compounds were dispensed on a white 384 well ProxiPlate™ (PerkinElmer Catalog #6008289) plate using the Labcyte Echo at varying concentrations (12 point, 1:3 dilution). The enzyme (at 0.5 nM) was incubated with compound for 10 minutes at room temperature. Then the substrate (phosphorylated insulin receptor probe sequence: ((OG488)-(NH—CH2—CH2—O—CH2—CH2—O—CH2—CO)-T-R-D-I-(PY)-E-T-D-Y—Y—R—K—K—NH2) (SEQ ID NO: 2) was added at 2 μM to the plates and incubated for another 10 minutes at room temperature. Finally, a quench solution (water and 4-bromo-3-(2-oxo-2-propoxyethoxy)-5-(3-{[1-(phenylmethanesulfonyl)piperidin-4-yl]amino}phenyl)thiophene-2-carboxylic acid) was added to the plates, which were then run on the EZ Reader (excitation 488 nm, emission 530 nm) to measure % conversion (the amount of phosphorylated substrate which was de-phosphorylated by PTPN2). […] The % inhibition was then used to calculate the IC50 values.

[2] = target: T2, His tagged full-length PTPN1 protein (Homo sapiens, UniProt P18031); assay: Mobility shift assay (MSA) to determine potency of PTPN1 inhibitors; type: biochemical; conditions: 0.5 nM enzyme, 2 μM substrate
T2 construct: made in house
T2 sequence (P18031 with tags, fused parts or gaps): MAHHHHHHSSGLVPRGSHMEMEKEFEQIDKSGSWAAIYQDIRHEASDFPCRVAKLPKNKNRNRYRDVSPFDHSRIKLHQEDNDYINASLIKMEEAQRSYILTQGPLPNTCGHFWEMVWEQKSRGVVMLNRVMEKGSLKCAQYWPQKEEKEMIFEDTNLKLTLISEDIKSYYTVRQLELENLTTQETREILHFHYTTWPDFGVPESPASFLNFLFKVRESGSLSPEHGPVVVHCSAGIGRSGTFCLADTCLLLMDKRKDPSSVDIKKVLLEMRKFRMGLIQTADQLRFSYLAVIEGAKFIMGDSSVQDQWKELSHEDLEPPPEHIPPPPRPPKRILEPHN
Summary of the method: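 His-tagged full-length human PTPN1 (0.5 nM) preincubated with compound 10 min at room temperature in pH 7.5 HEPES buffer with EGTA, EDTA, Tween 20 and DTT. Dephosphorylation of 2 μM fluorescent phospho-insulin-receptor peptide over 10 min measured by mobility shift. IC50 from % inhibition across a 12-point, 1:3 dilution series.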

| SMILES | IC50 [2] [nM] | IC50 [1] [nM] |
| --- | --- | --- |
| CC(C)CCN[C@@H]1CCc2cc(O)c(N3CC(=O)NS3(=O)=O)c(F)c2[C@H]1O [Compound 406, 5-{(7R,8R)-1-fluoro-3,8-dihydroxy-7-[(3-methylbutyl)amino]-5,6,7,8-tetrahydronaphthalen-2-yl}-1λ^6,2,5-thiadiazolidine-1,1,3-trione] | > 100 | 10 to 100 |
| O=C1CN(c2c(O)cc3c(c2F)C[C@H](NCCC2CCOC2)CC3)S(=O)(=O)N1 (stereo partly drawn) [Compound 356, 5-[(7R)-1-fluoro-3-hydroxy-7-{[2-(oxolan-3-yl)ethyl]amino}-5,6,7,8-tetrahydronaphthalen-2-yl]-1λ^6,2,5-thiadiazolidine-1,1,3-trione] | 1 to 10 | < 1 |
| Cc1nn(CCCC(C)(C)C#N)c(C)c1CN1CCc2cc(O)c(N3CC(=O)NS3(=O)=O)c(F)c2C1 [Compound 227] | > 100 | > 100 |
| Cc1nn(C)c(C)c1CN1CCc2cc(O)c(N3CC(=O)NS3(=O)=O)c(F)c2C1 [Compound 213] | > 100 | > 100 |
| CC1(C)CCc2cc(O)c(N3CC(=O)NS3(=O)=O)c(F)c2O1 [Compound 113] | > 100 | > 100 |
| N[C@@H]1CCc2cc(O)c(N3CC(=O)NS3(=O)=O)c(F)c2[C@H]1O [Compound 401, 5-[(7R,8R)-7-amino-1-fluoro-3,8-dihydroxy-5,6,7,8-tetrahydronaphthalen-2-yl]-1λ^6,2,5-thiadiazolidine-1,1,3-trione] | > 100 | > 100 |
| CC(O)CCN[C@@H]1CCc2cc(O)c(N3CC(=O)NS3(=O)=O)c(F)c2C1 (stereo partly drawn) [Compound 369, 5-{(7R)-1-fluoro-3-hydroxy-7-[(3-hydroxybutyl)amino]-5,6,7,8-tetrahydronaphthalen-2-yl}-1λ^6,2,5-thiadiazolidine-1,1,3-trione] | 10 to 100 | 1 to 10 |
| O=C1CN(c2c(O)cc3c(c2F)CN(CCCc2cccc(C(F)(F)F)c2)CC3)S(=O)(=O)N1 [Compound 294] | 10 to 100 | 10 to 100 |
| O=C1CN(c2c(O)cc3c(c2F)CN(Cc2ccccn2)CC3)S(=O)(=O)N1 [Compound 184] | > 100 | > 100 |
| CC(C)CCN[C@@H]1CCc2c(F)c(O)c(N3CC(=O)NS3(=O)=O)c(F)c2C1 [Compound 331, 5-{(7R)-1,4-difluoro-3-hydroxy-7-[(3-methylbutyl)amino]-5,6,7,8-tetrahydronaphthalen-2-yl}-1λ^6,2,5-thiadiazolidine-1,1,3-trione] | 1 to 10 | 1 to 10 |
| N[C@@H]1COc2cc(O)c(N3CC(=O)NS3(=O)=O)c(F)c2C1 [Compound 326, 5-[(3S)-3-amino-5-fluoro-7-hydroxy-3,4-dihydro-2H-1-benzopyran-6-yl]-1λ^6,2,5-thiadiazolidine-1,1,3-trione] | 10 to 100 | 10 to 100 |
| CC(C)(C)OC(=O)N1CCC(CN[C@@H]2COc3cc(O)c(N4CC(=O)NS4(=O)=O)c(F)c3C2)CC1 [Compound 384, tert-butyl 4-({[(3S)-5-fluoro-7-hydroxy-6-(1,1,4-trioxo-1λ^6,2,5-thiadiazolidin-2-yl)-3,4-dihydro-2H-1-benzopyran-3-yl]amino}methyl) piperidine-1-carboxylate] | 10 to 100 | 10 to 100 |
| CC(C)CNCC1CCc2cc(O)c(N3CC(=O)NS3(=O)=O)c(F)c2C1 (centres unmarked) [Compound 333, 5-(1-fluoro-3-hydroxy-7-{[(2-methylpropyl)amino]methyl}-5,6,7,8-tetrahydronaphthalen-2-yl)-1λ^6,2,5-thiadiazolidine-1,1,3-trione] | 10 to 100 | 10 to 100 |

Continued, in another order:

| IC50 [2] [nM] | SMILES | IC50 [1] [nM] |
| --- | --- | --- |
| 10 to 100 | O=C1CC[C@@H](CN2CCc3cc(O)c(N4CC(=O)NS4(=O)=O)c(F)c3C2)N1 [Compound 324] | 1 to 10 |
| 10 to 100 | O=C1CN(c2c(O)cc3c(c2F)CC(O)CC3)S(=O)(=O)N1 (centres unmarked) [Compound 335, 5-(1-fluoro-3,7-dihydroxy-5,6,7,8-tetrahydronaphthalen-2-yl)-1λ^6,2,5-thiadiazolidine-1,1,3-trione] | 10 to 100 |
| 10 to 100 | O=C1CN(c2c(O)cc3c(c2F)CN(CCCc2cccnc2)CC3)S(=O)(=O)N1 [Compound 207] | 10 to 100 |
| 10 to 100 | Cn1cccc1CN[C@@H]1CCc2cc(O)c(N3CC(=O)NS3(=O)=O)c(F)c2C1 [Compound 345, 5-[(7R)-1-fluoro-3-hydroxy-7-{[(1-methyl-1H-pyrrol-2-yl)methyl]amino}-5,6,7,8-tetrahydronaphthalen-2-yl]-1λ^6,2,5-thiadiazolidine-1,1,3-trione] | 10 to 100 |
| 1 to 10 | O=C1CN(c2c(O)cc3c(c2F)CN(C(=O)NCC2CC2)CC3)S(=O)(=O)N1 [Compound 258] | 1 to 10 |
| 10 to 100 | O=C1CN(c2c(O)cc3c(c2F)CN(C(=O)NCCc2ccccc2)CC3)S(=O)(=O)N1 [Compound 284] | 10 to 100 |
| 10 to 100 | CC(C)CNC(=N)N1CCc2cc(O)c(N3CC(=O)NS3(=O)=O)c(F)c2C1 [Compound 329, 8-fluoro-6-hydroxy-N-(2-methylpropyl)-7-(1,1,4-trioxo-1λ^6,2,5-thiadiazolidin-2-yl)-3,4-dihydroisoquinoline-2(1H)-carboximidamide] | 10 to 100 |
| 1 to 10 | CCCCN[C@@H]1CCc2cc(O)c(N3CC(=O)NS3(=O)=O)c(F)c2C1 [Compound 410, 5-[(7R)-7-(butylamino)-1-fluoro-3-hydroxy-5,6,7,8-tetrahydronaphthalen-2-yl]-1λ^6,2,5-thiadiazolidine-1,1,3-trione] | 1 to 10 |
| 10 to 100 | O=C1CN(c2c(O)cc3c(c2F)C[C@H](NCC2COC2)CC3)S(=O)(=O)N1 [Compound 366, 5-[(7R)-1-fluoro-3-hydroxy-7-{[(oxetan-3-yl)methyl]amino}-5,6,7,8-tetrahydronaphthalen-2-yl]-1λ^6,2,5-thiadiazolidine-1,1,3-trione] | 10 to 100 |
| 10 to 100 | O=C1CN(c2c(O)cc3c(c2F)C[C@H](NCCCc2ccccc2)CO3)S(=O)(=O)N1 [Compound 386, 5-{(3S)-5-fluoro-7-hydroxy-3-[(3-phenylpropyl)amino]-3,4-dihydro-2H-1-benzopyran-6-yl}-1λ^6,2,5-thiadiazolidine-1,1,3-trione] | 10 to 100 |
| 10 to 100 | C[C@H](N)CN1CCc2cc(O)c(N3CC(=O)NS3(=O)=O)c(F)c2C1 [Compound 245] | 10 to 100 |
| 10 to 100 | O=C1CN(c2c(O)cc3c(c2F)C[C@H](NCCC2CCOC2)CO3)S(=O)(=O)N1 (stereo partly drawn) [Compound 382, 5-[(3S)-5-fluoro-7-hydroxy-3-{[2-(oxolan-3-yl)ethyl]amino}-3,4-dihydro-2H-1-benzopyran-6-yl]-1λ^6,2,5-thiadiazolidine-1,1,3-trione] | 10 to 100 |
| 10 to 100 | C[C@@H](N)CN1CCc2cc(O)c(N3CC(=O)NS3(=O)=O)c(F)c2C1 [Compound 246] | 10 to 100 |
| 10 to 100 | O=C1CN(c2c(O)cc3c(c2F)CN(CCCC2CCOCC2)CC3)S(=O)(=O)N1 [Compound 196] | 10 to 100 |
| 10 to 100 | O=C1CN(c2c(O)cc3c(c2F)CN(CCCC2CC2)CC3)S(=O)(=O)N1 [Compound 159] | 10 to 100 |
| 10 to 100 | O=C1CN(c2c(O)cc3c(c2F)CN(CCC2CCNCC2)CC3)S(=O)(=O)N1 [Compound 230] | > 100 |
| 10 to 100 | COCCCNC(=O)N1CCc2cc(O)c(N3CC(=O)NS3(=O)=O)c(F)c2C1 [Compound 278] | 10 to 100 |
| 1 to 10 | CC(C)(C)OC(=O)N1CCc2cc(O)c(N3CC(=O)NS3(=O)=O)c(F)c2C1 [Compound 221] | 10 to 100 |
